Results as given in BigSolDB 2.1.

COc1cc(CNC(=O)CCCCCCC(C)C)ccc1O
Details | solubility (mole fraction)
in acetone, 299.49 K | 0.193
in acetone, 300.47 K | 0.203
in acetone, 302.34 K | 0.224
in acetone, 303.46 K | 0.236
in acetone, 304.58 K | 0.249
in acetone, 305.69 K | 0.256
in acetone, 306.75 K | 0.269
in acetone, 308.78 K | 0.287
in ethanol, 301.79 K | 0.184
in ethanol, 303.35 K | 0.196
in ethanol, 305.54 K | 0.213
in ethanol, 307.86 K | 0.233
in ethanol, 309.95 K | 0.249
in ethanol, 311.23 K | 0.258
in ethanol, 312.98 K | 0.268
in ethanol, 314.44 K | 0.278
in ethyl acetate, 302.07 K | 0.307
in ethyl acetate, 304.12 K | 0.33
in ethyl acetate, 305.29 K | 0.342
in ethyl acetate, 306.48 K | 0.354
in ethyl acetate, 307.69 K | 0.369
in ethyl acetate, 308.81 K | 0.379
in ethyl acetate, 310.65 K | 0.397
in ethyl acetate, 312.79 K | 0.415
in n-heptane, 298.43 K | 0.000229
in n-heptane, 300.59 K | 0.00026
in n-heptane, 302.85 K | 0.000299
in n-heptane, 304.03 K | 0.000318
in n-heptane, 305.69 K | 0.000349
in n-heptane, 307.08 K | 0.000378
in n-heptane, 308.84 K | 0.000422
in n-heptane, 309.97 K | 0.000451
in n-heptane, 311.04 K | 0.00048
in n-heptane, 313.41 K | 0.000549
in n-hexane, 296.14 K | 0.000136
in n-hexane, 298.73 K | 0.000159
in n-hexane, 300.87 K | 0.000181
in n-hexane, 301.98 K | 0.000196
in n-hexane, 303.09 K | 0.00021
in n-hexane, 305.04 K | 0.000238
in n-hexane, 307.13 K | 0.000269
in n-hexane, 309.25 K | 0.000309
in n-hexane, 310.68 K | 0.00034
in n-hexane, 312.02 K | 0.000374
in n-pentane, 297.26 K | 0.000115
in n-pentane, 298.19 K | 0.000122
in n-pentane, 299.27 K | 0.00013
in n-pentane, 300.43 K | 0.000142
in n-pentane, 301.54 K | 0.000152
in water, 324.67 K | 4.81e-05
in water, 325.03 K | 5.24e-05
in water, 325.66 K | 6.14e-05
in water, 326.29 K | 7.19e-05
in water, 326.81 K | 8.17e-05
in water, 327.37 K | 9.26e-05
